This is an account of results in the NIST ThermoML archive (doi:10.1016/j.fluid.2014.11.020).

The nature of this data set: activity coefficient (dimensionless); of the first substance listed, at infinite dilution; xn = mol fraction of the nth substance listed. The note with it: Liquid, Chromatography, x1 = 0.

The structures appear in SMILES notation. ± gives the expanded uncertainty stated by the source.

On to `CCCCCCC` [heptane] + CCCCCCCCn1cc[n+](COCCCOC[n+]2ccn(CCCCCCCC)c2C)c1C.O=S(=O)([N-]S(=O)(=O)C(F)(F)F)C(F)(F)F.O=S(=O)([N-]S(=O)(=O)C(F)(F)F)C(F)(F)F, for which the activity coefficient by setting is: (323.15 K) 4.67 ± 0.32; (333.15 K) 4.51 ± 0.31; (343.15 K) 4.49 ± 0.31.

`Cc1cccc(C)c1` [1,3-dimethylbenzene] + CCCOC[n+]1ccn(Cc2ccccc2)c1.O=S(=O)([N-]S(=O)(=O)C(F)(F)F)C(F)(F)F: the activity coefficient reads like this: (323.15 K) 1.55 ± 0.1; (333.15 K) 1.37 ± 0.09; (343.15 K) 1.35 ± 0.09.

For `CCCCCCCCC` [nonane] + CCCOC[n+]1ccn(C)c1.F[B-](F)(F)F, the activity coefficient (323.15 K) stood at 553 ± 38, the activity coefficient (333.15 K) came to 384 ± 26 and the activity coefficient (343.15 K) was 337 ± 23.

Take `CCCCCCCCCC` [decane] + CCCOC[n+]1ccn(C)c1.N#C[N-]C#N: the activity coefficient came to 372 ± 26 (323.15 K), 356 ± 24 (333.15 K) and 287 ± 20 (343.15 K).

As to `CCc1ccccc1` [ethylbenzene] + CCCCCCCCn1cc[n+](COCCCOC[n+]2ccn(CCCCCCCC)c2C)c1C.N#C[N-]C#N.N#C[N-]C#N, the activity coefficient reads like this: (323.15 K) 1.32 ± 0.09; (333.15 K) 1.34 ± 0.09; (343.15 K) 1.36 ± 0.09.

For the compound `CC1CCCC1` [methylcyclopentane] + CCCCCCCCn1cc[n+](COCCC)c1C.O=S(=O)([N-]S(=O)(=O)C(F)(F)F)C(F)(F)F, the activity coefficient by setting is: (323.15 K) 2.72 ± 0.19; (333.15 K) 2.41 ± 0.16; (343.15 K) 2.27 ± 0.15.

Turning to `CCOCC` [diethyl ether] + CCCOC[n+]1ccn(C)c1.F[B-](F)(F)F, the activity coefficient worked out at 10.4 ± 0.71 (323.15 K) and 10.6 ± 0.72 (333.15 K).

As for `Cc1ccccc1C` [1,2-dimethylbenzene] + CCCOC[n+]1ccc(N(C)C)cc1.O=S(=O)([N-]S(=O)(=O)C(F)(F)F)C(F)(F)F, the activity coefficient is, setting by setting: (323.15 K) 1.24 ± 0.08; (333.15 K) 1.31 ± 0.09; (343.15 K) 1.33 ± 0.09.

In the case of `Cc1ccccc1` [toluene] + CCCCCCCCn1cc[n+](COCCC)c1C.O=S(=O)([N-]S(=O)(=O)C(F)(F)F)C(F)(F)F, the activity coefficient reads like this: (323.15 K) 0.76 ± 0.05; (333.15 K) 0.76 ± 0.05; (343.15 K) 0.77 ± 0.05.

Turning to `C1CCCCC1` [cyclohexane] + CCCOC[n+]1ccn(Cc2ccccc2)c1.N#C[N-]C#N, the activity coefficient by setting is: (323.15 K) 13.1 ± 0.9; (333.15 K) 12.3 ± 0.84; (343.15 K) 11.5 ± 0.79.

With `CCCC(C)=O` [pentan-2-one] + CCCOC[n+]1ccn(Cc2ccccc2)c1.O=S(=O)([N-]S(=O)(=O)C(F)(F)F)C(F)(F)F, the activity coefficient was 0.46 ± 0.04 (323.15 K), 0.42 ± 0.04 (333.15 K) and 0.4 ± 0.03 (343.15 K).

In the case of `Cc1ccccc1C` [1,2-dimethylbenzene] + CCCOC[n+]1ccn(Cc2ccccc2)c1.O=S(=O)([N-]S(=O)(=O)C(F)(F)F)C(F)(F)F, the activity coefficient (323.15 K) amounted to 1.58 ± 0.1, the activity coefficient (333.15 K) is 1.23 ± 0.08 and the activity coefficient (343.15 K) came to 1.22 ± 0.08.

As to `CC1CCCCC1` [methylcyclohexane] + CCCOC[n+]1ccn(C)c1.N#C[N-]C#N, the activity coefficient reads like this: (323.15 K) 44.3 ± 3; (333.15 K) 39.6 ± 2.7; (343.15 K) 35.6 ± 2.4.

In the case of `CCC(=O)CC` [pentan-3-one] + CCCOC[n+]1ccc(N(C)C)cc1.O=S(=O)([N-]S(=O)(=O)C(F)(F)F)C(F)(F)F, the activity coefficient (323.15 K) is 0.72 ± 0.05, the activity coefficient (333.15 K) was determined as 0.75 ± 0.05 and the activity coefficient (343.15 K) is 0.76 ± 0.05.

Take `C=CCCCC` [hex-1-ene] + CCCOC[n+]1ccn(C)c1.N#C[N-]C#N: the activity coefficient (323.15 K) amounted to 28 ± 1.9.

As to `CCCCCCCCC` [nonane] + CCCOC[n+]1ccc(N(C)C)cc1.O=S(=O)([N-]S(=O)(=O)C(F)(F)F)C(F)(F)F, the activity coefficient by setting is: (323.15 K) 32.8 ± 2.2; (333.15 K) 30.6 ± 2.1; (343.15 K) 27.1 ± 1.9.

As to `CC(C)OC(C)C` [diisopropyl ether] + CCCOC[n+]1ccn(Cc2ccccc2)c1.N#C[N-]C#N, the activity coefficient runs as follows: (323.15 K) 12.8 ± 0.87; (333.15 K) 12.1 ± 0.83; (343.15 K) 12 ± 0.82.

Consider `CCCCO` [butan-1-ol] + CCCOC[n+]1ccn(C)c1.N#C[N-]C#N, for which the activity coefficient reads like this: (323.15 K) 1.37 ± 0.09; (333.15 K) 1.32 ± 0.09; (343.15 K) 1.27 ± 0.08.

`C[N+](=O)[O-]` [nitromethane] + CN(C)c1cc[n+](COCCCOC[n+]2ccc(N(C)C)cc2)cc1.O=S(=O)([N-]S(=O)(=O)C(F)(F)F)C(F)(F)F.O=S(=O)([N-]S(=O)(=O)C(F)(F)F)C(F)(F)F: the activity coefficient is 0.39 ± 0.03 (323.15 K), 0.39 ± 0.03 (333.15 K) and 0.38 ± 0.03 (343.15 K).

As for `ClC(Cl)Cl` [trichloromethane] + CCCOC[n+]1ccn(C)c1.F[B-](F)(F)F, the activity coefficient reads like this: (323.15 K) 1.74 ± 0.12; (333.15 K) 1.8 ± 0.12; (343.15 K) 1.87 ± 0.13.

On to `C1COCCO1` [1,4-dioxane] + CCCOC[n+]1ccn(C)c1.O=S(=O)([N-]S(=O)(=O)C(F)(F)F)C(F)(F)F, for which the activity coefficient turned out to be 0.57 ± 0.04 (323.15 K), 0.57 ± 0.04 (333.15 K) and 0.58 ± 0.04 (343.15 K).

For the compound `Cc1ccccc1` [toluene] + CCCCCCCCn1cc[n+](COCCC)c1C.N#C[N-]C#N, the activity coefficient was 1.43 ± 0.09 (323.15 K), 1.22 ± 0.08 (333.15 K) and 1.15 ± 0.07 (343.15 K).

As for `CCCCO` [butan-1-ol] + CCCCCCCCn1cc[n+](COCCCOC[n+]2ccn(CCCCCCCC)c2C)c1C.O=S(=O)([N-]S(=O)(=O)C(F)(F)F)C(F)(F)F.O=S(=O)([N-]S(=O)(=O)C(F)(F)F)C(F)(F)F, the activity coefficient by setting is: (323.15 K) 0.84 ± 0.05; (333.15 K) 0.74 ± 0.05; (343.15 K) 0.69 ± 0.05.

On to `CC(C)CO` [2-methyl-1-propanol] + Cn1cc[n+](COCCCOC[n+]2ccn(C)c2)c1.N#C[N-]C#N.N#C[N-]C#N, for which the activity coefficient is, setting by setting: (323.15 K) 1.94 ± 0.13; (333.15 K) 1.81 ± 0.12; (343.15 K) 1.73 ± 0.12.

Take `CCC(C)=O` [butanone] + Cn1cc[n+](COCCCOC[n+]2ccn(C)c2)c1.N#C[N-]C#N.N#C[N-]C#N: the activity coefficient turned out to be 1.7 ± 0.11 (323.15 K), 1.56 ± 0.1 (333.15 K) and 1.44 ± 0.09 (343.15 K).

Take `c1ccncc1` [pyridine] + CCCOC[n+]1ccn(Cc2ccccc2)c1.F[B-](F)(F)F: the activity coefficient (323.15 K) came out at 0.6 ± 0.04, the activity coefficient (333.15 K) was 0.61 ± 0.04 and the activity coefficient (343.15 K) is 0.65 ± 0.04.

Turning to `CCc1ccccc1` [ethylbenzene] + CCCOC[n+]1ccn(Cc2ccccc2)c1.N#C[N-]C#N, the activity coefficient (323.15 K) is 3.41 ± 0.23, the activity coefficient (333.15 K) came out at 3.36 ± 0.23 and the activity coefficient (343.15 K) came to 3.32 ± 0.23.

On to `CCC(=O)CC` [pentan-3-one] + CN(C)c1cc[n+](COCCCOC[n+]2ccc(N(C)C)cc2)cc1.O=S(=O)([N-]S(=O)(=O)C(F)(F)F)C(F)(F)F.O=S(=O)([N-]S(=O)(=O)C(F)(F)F)C(F)(F)F, for which the activity coefficient by setting is: (323.15 K) 0.67 ± 0.05; (333.15 K) 0.69 ± 0.05; (343.15 K) 0.7 ± 0.05.

For the compound `CCCCCCCCCCCC` [dodecane] + CCCOC[n+]1ccc(N(C)C)cc1.O=S(=O)([N-]S(=O)(=O)C(F)(F)F)C(F)(F)F, the activity coefficient was found to be 73.5 ± 5 (323.15 K), 69.4 ± 4.8 (333.15 K) and 61.7 ± 4.2 (343.15 K).

`CC(C)CO` [2-methyl-1-propanol] + CCCOC[n+]1ccc(N(C)C)cc1.O=S(=O)([N-]S(=O)(=O)C(F)(F)F)C(F)(F)F: the activity coefficient was 2.03 ± 0.14 (323.15 K), 1.92 ± 0.13 (333.15 K) and 1.73 ± 0.12 (343.15 K).

In the case of `CCCCCCCCCCCC` [dodecane] + CCCOC[n+]1ccn(C)c1.F[B-](F)(F)F, the activity coefficient reads like this: (323.15 K) 1160 ± 80; (333.15 K) 1160 ± 80; (343.15 K) 1150 ± 79.

On to `CCCCCCC` [heptane] + CCCOC[n+]1ccn(Cc2ccccc2)c1.O=S(=O)([N-]S(=O)(=O)C(F)(F)F)C(F)(F)F, for which the activity coefficient amounted to 12 ± 0.82 (323.15 K), 10.1 ± 0.69 (333.15 K) and 9.58 ± 0.65 (343.15 K).

Regarding `CC(C)OC(C)C` [diisopropyl ether] + CCCOC[n+]1ccn(C)c1.F[B-](F)(F)F, the activity coefficient (323.15 K) was 32.7 ± 2.2, the activity coefficient (333.15 K) is 28.5 ± 1.9 and the activity coefficient (343.15 K) is 26.4 ± 1.8.

For `Cc1cccc(C)c1` [1,3-dimethylbenzene] + Cn1cc[n+](COCCCOC[n+]2ccn(C)c2)c1.O=S(=O)([N-]S(=O)(=O)C(F)(F)F)C(F)(F)F.O=S(=O)([N-]S(=O)(=O)C(F)(F)F)C(F)(F)F, the activity coefficient worked out at 2.39 ± 0.16 (323.15 K), 2.41 ± 0.16 (333.15 K) and 2.38 ± 0.16 (343.15 K).

`Cc1ccccc1` [toluene] + CCCOC[n+]1ccc(N(C)C)cc1.O=S(=O)([N-]S(=O)(=O)C(F)(F)F)C(F)(F)F: the activity coefficient runs as follows: (323.15 K) 0.99 ± 0.06; (333.15 K) 1.04 ± 0.07; (343.15 K) 1.05 ± 0.07.

On to `CCCCCCCCCCC` [undecane] + CN(C)c1cc[n+](COCCCOC[n+]2ccc(N(C)C)cc2)cc1.O=S(=O)([N-]S(=O)(=O)C(F)(F)F)C(F)(F)F.O=S(=O)([N-]S(=O)(=O)C(F)(F)F)C(F)(F)F, for which the activity coefficient runs as follows: (323.15 K) 114 ± 7.8; (333.15 K) 99 ± 6.8; (343.15 K) 88.6 ± 6.1.

Take `c1ccccc1` [benzene] + N#C[N-]C#N.N#C[N-]C#N.c1ccc(Cn2cc[n+](COCCCOC[n+]3ccn(Cc4ccccc4)c3)c2)cc1: the activity coefficient by setting is: (323.15 K) 3.09 ± 0.21; (333.15 K) 2.95 ± 0.2; (343.15 K) 2.92 ± 0.2.

Regarding `CCCC(C)=O` [pentan-2-one] + CCCCCCCCn1cc[n+](COCCC)c1C.O=S(=O)([N-]S(=O)(=O)C(F)(F)F)C(F)(F)F, the activity coefficient is 0.48 ± 0.04 (323.15 K), 0.48 ± 0.04 (333.15 K) and 0.48 ± 0.04 (343.15 K).
